According to US20210121505A1, “COMPOSITIONS AND METHODS FOR TREATING INFLAMMATORY BOWEL DISEASES” (Seres Therapeutics, Inc., priority 2018, published 2021):

Experiments:
[1] = tested on: LPS-stimulated peripheral blood mononuclear cells (PBMCs); assay: TNF-α and IL-10 secretion assay, LPS-stimulated PBMCs; format: cell-based, Human; details: LPS-activated PBMCs; bile acid 12.5, 25, 50 μM; LPS 1 ng/mL; FIGS. 4A and 4B
Procedure: To better understand the possible relationship between the increased level of certain secondary bile acids and ulcerative colitis remission, monocytes and PBMCs were activated with LPS in the presence of varying concentrations of different primary and secondary bile acids in their conjugated and unconjugated forms. The amount of TNF-α and IL-10 produced by the activated cells was measured as described below.
Human buffy coat was obtained from Bioreclamation and shipped overnight on ice. Buffy coat was diluted 1:1 with PBS and layered on top of a Ficoll-Paque (GE Healthcare Cat #17-1440-03) in 50 mL falcon tubes. Samples were spun at 500×g for 20 min at room temperature with no brake. PBMCs were aspirated at the […] gradient layer and washed 3 times with PBS. Cells were counted with a hemocytometer to determine cell viability and concentration. Cells were plated onto 96 well plate and incubated at 37 C, 5% CO2 for 1 hour. Following this, bile acids were added at a final concentration of 12.5 μM, 25 μM and 50 μM for one hour prior to addition of LPS (1 ng/mL). After incubation of 16-20 hours, the cell culture media were collected for cytokine analysis. Cytokines were assayed using the Milliplex Human Cytokine kit (Luminex; Millipore), assaying IL-10 and TNF-α. Monocytes were isolated from PBMCs using the Miltenyi Biotec Pan Monocyte Isolation Kit (Cat No: 130-096-537) as per manufacturer's instructions and assayed as described above.

[2] = tested on: intestinal epithelial cells (HT29); assay: IL-8 secretion assay, TNF-α-stimulated intestinal epithelial cells; format: cell-based; details: bile acid 62.5, 125, 250 μM, 1.25 ng/mL TNF-α, relative to no bile acid control, FIG. 6
Procedure: Since IBD primarily affects the intestinal tissues, whether the anti-inflammatory effects observed in monocytes and PBMCs were also true in intestinal epithelial cells (HT29) was assessed as described below.
HT29 cells, cultured in McCoys Medium supplemented with 10% FBS, GlutaMAX and Pen/Strep were plated at a density of 50 k cells/well in 96-well format and allowed to grow for 5 days until fully confluent. Culture medium was changed every two days. On day 5, cells were pre-treated for 1 hour with 250 μM, 125 μM or 62.5 μM bile acid compounds before exposure to 1.25 ng/mL TNF-α. Cells were incubated overnight (16 h) and culture supernatants were collected for IL-8 protein quantification by ELISA. IL-8 levels of test samples were normalized to inflammatory controls, DMSO pre-treated samples (i.e., no bile acids) that were exposed to the 1.25 ng/mL TNF-α.

CC(CCC(=O)NCC(=O)O)C1CCC2C3CCC4CC(O)CCC4(C)C3CC(O)C12C (stereo not drawn) [gDCA, glyco-deoxycholic acid]
anti-inflammatory effects (higher IL-10, lower TNF-α) [1]: greatest anti-inflammatory effects | IL-8 production [2]: decreased IL-8 production in a dose-dependent manner

C[C@H](CCC(=O)NCCS(=O)(=O)O)[C@H]1CC[C@H]2[C@@H]3CC[C@@H]4C[C@H](O)CC[C@]4(C)[C@H]3C[C@H](O)[C@]12C [tDCA, tauro-deoxycholic acid]
anti-inflammatory effects (higher IL-10, lower TNF-α) [1]: greatest anti-inflammatory effects | IL-8 production [2]: decreased IL-8 production in a dose-dependent manner

C[C@H](CCC(=O)NCCS(=O)(=O)O)[C@H]1CC[C@H]2[C@@H]3CC[C@@H]4C[C@H](OS(=O)(=O)O)CC[C@]4(C)[C@H]3CC[C@]12C [tLCA, tauro-sulfo-lithocholic acid]
anti-inflammatory effects (higher IL-10, lower TNF-α) [1]: greatest anti-inflammatory effects | IL-8 production [2]: decreased IL-8 production in a dose-dependent manner
